Patent publication US20260007758A1, “SO[…]-2 RECEPTOR (SST2R) NON-PEPTIDE DRUG CONJUGATES AND USES THEREOF” (Crinetics Pharmaceuticals, Inc., priority 2024, published 2026)

What was measured:
Type in all cases: cell-based
[1] = target: T1, human somatostatin receptor subtype 2 (Homo sapiens, UniProt P30874); test: Functional assay for SSTR2 agonists (HTRF cAMP); details: CHO-K1 cells stably expressing human SST2; NKH477-stimulated cAMP; 20 min at 37 C; read-out: hSST2 cAMP Avg EC50
T1 construct: expressed in transfected cells
Description: General overview: All five SSTR subtypes are Gi coupled G-protein coupled receptors (GPCRs) that lead to decreases in intracellular cyclic AMP (cAMP) when activated by an agonist. Therefore, measurement of intracellular cAMP levels can be used to assess whether compounds of the invention are agonists of SSTR subtypes (John Kelly, Troy Stevens, W. Joseph Thompson, and Roland Seifert, Current Protocols in Pharmacology. 2005, 2.2.1-2.2). One example of an intracellular cAMP assay is described below.
Four days prior to the assay, 2,000 Chinese hamster ovary cells (CHO-K1, ATCC #CCL-61) stably expressing the human somatostatin receptor subtype 2 are plated in each well of a 96-well tissue culture-treated plate in Ham's F12 growth media (ThermoFisher #10-080-CM) supplemented with 10% donor bovine serum (Gemini Bio-Products #100-506), 100 U/mL penicillin; 100 ug/mL streptomycin, 2 mM L-glutamine (Gemini Bio-Products #400-110) and 0.2 mg/mL hygromycin B (GoldBio #31282-04-9). The cells are cultured at 37° C., 5% CO2 and 95% humidity. cAMP is measured with HTRF dynamic cAMP assay (Cisbio. #62AM5PEJ) per manufacturer's instructions. […] The cells are incubated for 20 minutes at 37° C. (the final concentration of the compounds of the invention are typically 0-10,000 nM). The cells are treated with 50 μL of lysis buffer (HRTF cAMP kit, Cisbio) and incubated at room temperature for 30 minutes with rotary shaking at 600 rpm, and then diluted with 150 μL of stimulation buffer and shaken for an additional five minutes at 300 rpm. The lysate is transferred to 384-well plates and incubated for 1-24 hours at room temperature, and cAMP accumulation is detected by d2-labeled cAMP and Anti-cAMP-Cryptate. The time-resolved fluorescent signal is read using a m1000 Pro (Tecan) or CLARIOStar (BMG Labtech) microplate reader, where the samples are excited with light at 340 nm and emission light is measured at 620 nm and 665 nm. The data is expressed as a calculation of the fluorescence ratio (665 nm/620 nm). The intracellular cAMP concentrations are calculated by regression to a standard curve and are plotted vs, the concentration of the compounds of the invention. The EC50 of the compounds are calculated using standard methods. All data manipulations are in GraphPad Prism v9 (GraphPad, San Diego, CA).

[2] = tested on: NCI-H524 human small cell lung cancer cells; test: H524 assay: inhibition of cell proliferation (CellTiter Glo); details: 2 h treatment, washout, additional 70 h incubation
Method: NDCs of the present invention were assessed in an in vitro assay evaluating the inhibition of cell proliferation. NCI-H524 (ATCC) human small cell lung cancer cells were plated in 96-well V-bottom plates (Costar) at a concentration of 5,000 cells/well. 24 h later, the cells were treated for 2 h with a NDC. NDC starting dose was 1 uM and two-fold serial dilutions were done for a total of 11 points. After 2 h of treatment, cells were spun down, and the drug-containing media was removed, and fresh complete media was added and used to resuspend the cells, which were spun again. After removal of the media, the cells were resuspended in complete medium and incubated for an additional 70 h. Cell proliferation was assessed using the CellTiter Glo Assay according to the standard protocol (Promega). Luminescence was measured using a TECAN plate reader. Percent proliferation inhibition was calculated using the following formula: % inhibition=(Luminescence Control−Luminescence Treatment)/Luminescence Control*100. IC50 curves were generated using the nonlinear regression analysis (four-parameter) with GraphPad Prism 9.

SST2 = target: T2, SST2 (Homo sapiens, UniProt P30874); test: PathHunter CHO-K1 SST2 Internalization Assay; details: PathHunter CHO-K1 SST2 cells; 90 min at 37 C; luminescence; read-out: Internalization EC50
T2 construct: host or cells: PathHunter CHO-K1 SST2 cells
Method: NDCs of the present invention were assessed in vitro using the human PathHunter CHO-K1 SST2 β-arrestin2 and PathHunter CHO-K1 SST2 Internalization Assays from DiscoverX. The CHO-K cells were seeded in 20 μLs of cell culture medium in a white-walled 384 well tissue culture-compatible plate at a density of 2500 cells/well. After a 48-hour incubation, cells were treated with 5 μLs of a 1:3 serially diluted SST2 NDC prepared at 5× concentration with a final top compound concentration of 10 uM for 90 min at 37 C and in 5% CO2. 11 dilutions were tested as well as one treatment that was compound free. After incubation, the media containing treatments were discarded and 20 μL of a working solution of Beta-Glo from Promega Beta-Go Assay System was added to each well. The plate was then incubated for 60 min at room temperature in the dark. Luminescence was measured using a Tecan plate reader. IC50 curves were generated using the nonlinear regression analysis (four-parameters) with GraphPad Prism 9. Results were the average of duplicates and are corrected for background.

T1 sequence (P30874 whole entry): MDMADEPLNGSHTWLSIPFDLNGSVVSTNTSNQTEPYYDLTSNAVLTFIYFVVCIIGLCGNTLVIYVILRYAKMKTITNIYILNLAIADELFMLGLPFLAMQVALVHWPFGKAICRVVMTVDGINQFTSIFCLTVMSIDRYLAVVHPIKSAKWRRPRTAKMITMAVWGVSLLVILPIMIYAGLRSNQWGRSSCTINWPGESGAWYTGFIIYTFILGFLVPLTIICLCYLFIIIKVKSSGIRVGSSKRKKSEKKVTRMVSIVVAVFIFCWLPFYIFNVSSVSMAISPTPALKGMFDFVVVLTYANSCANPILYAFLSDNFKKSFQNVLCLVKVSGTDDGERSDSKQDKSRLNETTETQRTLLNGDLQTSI
T2 sequence (P30874 whole entry): as above

| SMILES | EC50 [1] [nM] | EC50 [2] [nM] | EC50 (SST2) [nM] |
| --- | --- | --- | --- |
| CC[C@H](C)[C@@H]([C@@H](CC(=O)N1CCC[C@H]1[C@H](OC)[C@@H](C)C(=O)N[C@H](C)[C@@H](O)c1ccccc1)OC)N(C)C(=O)[C@@H](NC(=O)[C@H](C(C)C)N(C)C(=O)OCc1ccc(NC(=O)[C@H](CCCNC(N)=O)NC(=O)[C@@H](NC(=O)CCOCCC(=O)NCCNc2ncc(-c3cc(C)cc(F)c3)c(N3CCC(N)CC3)c2-c2nc3ccc(Cl)cc3[nH]2)C(C)C)c(OC)c1)C(C)C [Compound 11] | 0.33 | 14 | 10 |
| CC[C@H](C)[C@@H]([C@@H](CC(=O)N1CCC[C@H]1[C@H](OC)[C@@H](C)C(=O)N[C@H](C)[C@@H](O)c1ccccc1)OC)N(C)C(=O)[C@@H](NC(=O)[C@H](C(C)C)N(C)C(=O)OCc1ccc(NC(=O)[C@H](CCCNC(N)=O)NC(=O)[C@@H](NC(=O)CCOCCC(=O)NCCNc2ncc(-c3cc(C)cc(F)c3)c(N3CCC(N)CC3)c2-c2nc3ccc(Cl)cc3[nH]2)C(C)C)c(OCCO)c1)C(C)C [Compound 12] | 0.24 | 3.9 | 6.9 |
| CC[C@H](C)[C@@H]([C@@H](CC(=O)N1CCC[C@H]1[C@H](OC)[C@@H](C)C(=O)N[C@H](C)[C@@H](O)c1ccccc1)OC)N(C)C(=O)[C@@H](NC(=O)[C@H](C(C)C)N(C)C(=O)OCc1ccc(NC(=O)[C@H](C)NC(=O)[C@@H](NC(=O)CCOCCC(=O)NCCNc2ncc(-c3cc(C)cc(F)c3)c(N3CCC(N)CC3)c2-c2nc3ccc(Cl)cc3[nH]2)C(C)C)c(OCC(=O)O)c1)C(C)C [Compound 13] | 0.16 | 11 | 3.2 |
| CC[C@H](C)[C@@H]([C@@H](CC(=O)N1CCC[C@H]1[C@H](OC)[C@@H](C)C(=O)N[C@H](C)[C@@H](O)c1ccccc1)OC)N(C)C(=O)[C@@H](NC(=O)[C@H](C(C)C)N(C)C(=O)OCc1ccc(NC(=O)[C@H](C)NC(=O)[C@@H](NC(=O)CCOCCOCCOCCOCCC(=O)NCCNc2ncc(-c3cc(C)cc(F)c3)c(N3CCC(N)CC3)c2-c2nc3ccc(Cl)cc3[nH]2)C(C)C)c(OCC(=O)O)c1)C(C)C [Compound 14] | 0.037 | 19 | 4.6 |
| CC[C@H](C)[C@@H]([C@@H](CC(=O)N1CCC[C@H]1[C@H](OC)[C@@H](C)C(=O)N[C@H](C)[C@@H](O)c1ccccc1)OC)N(C)C(=O)[C@@H](NC(=O)[C@H](C(C)C)N(C)C(=O)OCc1ccc(NC(=O)[C@H](CCCNC(N)=O)NC(=O)[C@@H](NC(=O)[C@H](CCC(=O)O)NC(=O)CCOCCC(=O)NCCNc2ncc(-c3cc(C)cc(F)c3)c(N3CCC(N)CC3)c2-c2nc3ccc(Cl)cc3[nH]2)C(C)C)c(C)c1)C(C)C [Compound 15] | 0.27 | 91 | 17 |
| CC[C@H](C)[C@@H]([C@@H](CC(=O)N1CCC[C@H]1[C@H](OC)[C@@H](C)C(=O)N[C@H](C)[C@@H](O)c1ccccc1)OC)N(C)C(=O)[C@@H](NC(=O)[C@H](C(C)C)N(C)C(=O)OCc1ccc(NC(=O)[C@H](CCCNC(N)=O)NC(=O)[C@@H](NC(=O)[C@H](CCC(=O)O)NC(=O)CCOCCC(=O)NCCNc2ncc(-c3cc(C)cc(F)c3)c(N3CCC(N)CC3)c2-c2nc3ccc(Cl)cc3[nH]2)C(C)C)c(OC)c1)C(C)C [Compound 16] | 0.083 | 160 | 7.8 |
| CC[C@H](C)[C@@H]([C@@H](CC(=O)N1CCC[C@H]1[C@H](OC)[C@@H](C)C(=O)N[C@H](C)[C@@H](O)c1ccccc1)OC)N(C)C(=O)[C@@H](NC(=O)[C@H](C(C)C)N(C)C(=O)OCc1ccc(NC(=O)[C@H](C)NC(=O)[C@@H](NC(=O)CCOCCC(=O)NCCNc2ncc(-c3cc(C)cc(F)c3)c(N3CCC(N)CC3)c2-c2nc3ccc(Cl)cc3[nH]2)C(C)C)c(O)c1)C(C)C [Compound 17] | 0.44 | 5.4 | 3.8 |
